Reference: patent publication US20250074892A1, “CARBONYL BRIDGED HETEROCYCLIC COMPOUND, AND COMPOSITION AND APPLICATION THEREOF” (BEIJING SCITECH-MQ PHARMACEUTICALS LIMITED, priority 2022, published 2025)

What was measured:
HT29 cells = test: Inhibition of cell necrosis (CCK8 method), HT29 cells; assay type: cell-based, human; settings: for IC50: HT29, Human TNF-α/AT-406/Z-VAD-FMK, 16 hours, CCK8; for inhibitory activity against human HT29 cells: HT29 necrosis
Description: (§1) In this assay example 2, under the condition of inducing programmed cell necrosis of HT29 and L929 cell lines, different concentrations of the test compounds were added to test the IC50 of the rescue effect of the test compounds on the programmed necrosis.
(§2) • Compounds: dissolved in DMSO to make a 10 mM solution; • TNF-α: initial concentration of 100 µg/mL; • Z-VAD-FMK: dissolved in DMSO to make a 10 mM solution; • AT-406: dissolved in DMSO to make a 10 mM solution. • Cell lines: HT29 cells were cultured in McCoy's 5A medium containing 10% fetal bovine serum, 100 U/mL penicillin, and 100 µg/mL streptomycin, and L929 cells were cultured in MEM medium containing 10% horse serum, 100 U/mL penicillin, and 100 µg/mL streptomycin.
(§3) 1. The test compound was dissolved in DMSO to form a stock solution, and a gradient dilution was performed; the solution was then diluted with the corresponding culture medium to obtain a solution with 10 times the working concentration.
(§4) 2. The cells in the logarithmic growth phase were diluted with culture medium to a specific cell concentration. 80 µL of the cell suspension was added to a 96-well plate, so that the cell densities of HT29 and L929 were 1.2*10^4 cells/well and 2.0*10^4 cells/well, respectively. The plate was cultured in a 37° C., 5% carbon dioxide incubator overnight.
(§5) 3. […] of the compound solution was added to each well of the 96-well plate inoculated with cells. The compounds to be tested were serially diluted 4-fold to obtain 9 concentrations in duplicate, starting from a maximum concentration of 10 μM. At the same time, a control group without compound addition was set up.
(§6) 4. After the cells were cultured for another 30 minutes, 10 μL of the inducer mixture was added to each well. The final concentrations of Human TNF-α, AT-406 and Z-VAD-FMK in HT29 cells were 20 ng/mL, […] and 20 μM, respectively; and the final concentrations of Murine TNF-α and Z-VAD-FMK in L929 cells were 20 ng/mL and 25 μM, respectively.
(§7) 5. The 96-well plate in which compounds and inducer were added was placed in a 37° C., 5% carbon dioxide incubator for further culture, wherein HT29 cells were cultured for 16 hours and L929 cells were cultured for 4-8 hours. Cell viability was detected by CCK8. GraphPad Prism software was used to prepare a dose-effect curve and IC50 was calculated.

L929 cells = test: Inhibition of cell necrosis (CCK8 method), L929 cells; assay type: cell-based, mouse; settings: for IC50: 4-8 hours, CCK8; for inhibitory activity against mouse L929 cells: L929 necrosis
Description: as §1, §2, §3, §4, §5, §6, §7

[1] = Mus musculus, L929, L929, Murine TNF-α/Z-VAD-FMK

| Compound | IC50 (HT29 cells) [nM] | IC50 (L929 cells; L929, Murine TNF-α/Z-VAD-FMK) [nM] | IC50 (HT29 cells; Homo sapiens, HT-29, 16 h) [nM] | IC50 (L929 cells; [1]) [nM] | inhibitory activity against human HT29 cells (HT29 cells) | inhibitory activity against mouse L929 cells (L929 cells) |
| --- | --- | --- | --- | --- | --- | --- |
| COCCCCOc1ccc(C)c(-c2ccnc(N3CCC(C(=O)N4N=CCC4c4cc(F)cc(F)c4)CC3)c2)c1 (stereo not shown) [Example 34, (5-(3,5-difluorophenyl)-4,5-dihydro-1H-pyrazol-1-yl)(1-(4-(5-(4-methoxybutoxy)-2-methylphenyl)pyridin-2-yl)piperidin-4-yl)methanone] | 10 to 50 | 50 to 100 |  |  |  |  |
| Cc1ccc(OCCCCO)cc1-c1ccnc(N2CCC(C(=O)N3N=CCC3c3cc(F)cc(F)c3)CC2)c1 (stereo not shown) [Example 35, (5-(3,5-difluorophenyl)-4,5-dihydro-1H-pyrazol-1-yl)(1-(4-(5-(4-hydroxybutoxy)-2-methylphenyl)pyridin-2-yl)piperidin-4-yl)methanone] | 10 to 50 | 50 to 100 |  |  |  |  |
| O=C(C1CCN(c2cc(-c3cc(OCCCCO)ccc3F)ccn2)CC1)N1N=CCC1c1cc(F)cc(F)c1 (stereo not shown) [Example 36, (5-(3,5-difluorophenyl)-4,5-dihydro-1H-pyrazol-1-yl)(1-(4-(2-fluoro-5-(4-hydroxybutoxy)phenyl)pyridin-2-yl)piperidin-4-yl)methanone] |  |  | ≤ 10 | 50 to 100 |  |  |
| O=C(C1CCN(c2cc(-c3cc(OCC(F)(F)CO)ccc3F)ccn2)CC1)N1N=CCC1c1cc(F)cc(F)c1 (stereo not shown) [Example 37, (1-(4-(5-(2,2-difluoro-3-hydroxypropoxy)-2-fluorophenyl)pyridin-2-yl)piperidin-4-yl) (5-(3,5-difluorophenyl)-4,5-dihydro-1H-pyrazol-1-yl)methanone] |  |  | ≤ 10 | 10 to 50 |  |  |
| O=C(C1CCN(c2nccc(-c3cc(OCCCO)ccc3F)n2)CC1)N1N=CCC1c1cc(F)cc(F)c1 (stereo not shown) [Example 38, (5-(3,5-difluorophenyl)-4,5-dihydro-1H-pyrazol-1-yl)(1-(4-(2-fluoro-5-(3-hydroxypropoxy)phenyl)pyrimidin-2-yl)piperidin-4-yl)methanone] |  |  | 10 to 50 | 50 to 100 |  |  |
| CC(C)(O)CCOc1ccc(F)c(-c2ccnc(N3CCC(C(=O)N4N=CCC4c4cc(F)cc(F)c4)CC3)n2)c1 (stereo not shown) [Example 39, (5-(3,5-difluorophenyl)-4,5-dihydro-1H-pyrazol-1-yl)(1-(4-(2-fluoro-5-(3-hydroxy-3-methylbutoxy)phenyl)pyrimidin-2-yl)piperidin-4-yl)methanone] |  |  | ≤ 10 | 50 to 100 |  |  |
| CCC(O)(CC)COc1ccc(F)c(-c2ccnc(N3CCC(C(=O)N4N=CCC4c4cc(F)cc(F)c4)CC3)c2)c1 (stereo not shown) [Example 44, [5-(3,5-difluorophenyl)-4,5-dihydro-1H-pyrazol-1-yl]-[1-[4-[5-(2-ethyl-2-hydroxybutoxy)-2-fluorophenyl]pyridin-2-yl]piperidin-4-yl]methanone] |  |  | ≤ 10 | 10 to 50 |  |  |
| O=C(C1CCN(c2cc(-c3cc(OCC4(O)CC4)ccc3F)ccn2)CC1)N1N=CCC1c1cc(F)cc(F)c1 (stereo not shown) [Example 45, [5-(3,5-difluorophenyl)-4,5-dihydro-1H-pyrazol-1-yl]-[1-[4-[2-fluoro-5-[(1-hydroxycyclopropyl)methoxy]phenyl]pyridin-2-yl]piperidin-4-yl]methanone] |  |  | ≤ 10 | 10 to 50 |  |  |
| O=C(C1CCN(c2cc(-c3cc(OCC4(O)CCC4)ccc3F)ccn2)CC1)N1N=CCC1c1cc(F)cc(F)c1 (stereo not shown) [Example 46, (5-(3,5-difluorophenyl)-4,5-dihydro-1H-pyrazol-1-yl)(1-(4-(2-fluoro-5-((1-hydroxycyclobutyl)methoxy)phenyl)pyridin-2-yl)piperidin-4-yl)methanone] |  |  | ≤ 10 | 10 to 50 |  |  |
| CC(C)(O)COc1ccc(F)c(-c2ccnc(N3CCC(C(=O)N4N=CCC4c4cc(F)cc(F)c4)CC3)c2)c1 (stereo not shown) [Example 47, (5-(3,5-difluorophenyl)-4,5-dihydro-1H-pyrazol-1-yl-5-deuterium)(1-(4-(2-fluoro-5-(2-hydroxy-2-methylpropoxy)phenyl)pyridin-2-yl)piperidin-4-yl)methanone] | 10 to 50 | 10 to 50 |  |  |  |  |
| NC(=O)c1ccc(N2CCC(C(=O)N3N=CCC3c3ccccc3)CC2)nc1 (stereo not shown) [compound 1, reference compound] |  |  | 400 to 4000 | > 4000 | significantly inferior to those of the compounds of the present application | almost no inhibitory activities |
| O=C(C1CCN(c2nccc(-c3ccccc3)n2)CC1)N1N=CCC1c1ccccc1 (stereo not shown) [compound 2, reference compound] |  |  | 400 to 4000 | > 4000 | significantly inferior to those of the compounds of the present application | almost no inhibitory activities |
